From PMC8800111 (The Journal of Biological Chemistry, 2021)

What was measured:
Type in all cases: cell-based
[1] = biological target: proteins of U3A human fibrosarcoma cells (4462 proteins detected) (Homo sapiens, UniProt Q6P3W2); conditions: protein DNAJC24; ZCSL3, U3A cells
[2] = biological target: proteins of U3A human fibrosarcoma cells (4462 proteins detected) (Homo sapiens, UniProt O75643); conditions: protein SNRNP200; soluble abundance after heat, U3A cells
[3] = biological target: proteins of U3A human fibrosarcoma cells (4462 proteins detected) (Homo sapiens, UniProt P01040); conditions: protein CSTA, U3A cells
Chain of proteins of U3A human fibrosarcoma cells (4462 proteins detected) (Homo sapiens, UniProt P01040) (P01040 whole entry): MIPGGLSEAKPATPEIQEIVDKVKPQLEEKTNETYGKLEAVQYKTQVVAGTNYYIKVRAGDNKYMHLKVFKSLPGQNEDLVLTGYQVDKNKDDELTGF

[4] = biological target: proteins of U3A human fibrosarcoma cells (4462 proteins detected) (Homo sapiens, UniProt Q9Y2P8); conditions: protein RCL1; U3A cells
[5] = biological target: proteins of U3A human fibrosarcoma cells (4462 proteins detected) (Homo sapiens, UniProt P17844); conditions: protein DDX5; U3A cells
[6] = biological target: proteins of U3A human fibrosarcoma cells (4462 proteins detected) (Homo sapiens, UniProt O14646); conditions: protein CHD1, U3A cells
[7] = biological target: proteins of U3A human fibrosarcoma cells (4462 proteins detected) (Homo sapiens, UniProt O00231); conditions: protein PSMD11; U3A cells
Chain of proteins of U3A human fibrosarcoma cells (4462 proteins detected) (Homo sapiens, UniProt O00231) (O00231 whole entry): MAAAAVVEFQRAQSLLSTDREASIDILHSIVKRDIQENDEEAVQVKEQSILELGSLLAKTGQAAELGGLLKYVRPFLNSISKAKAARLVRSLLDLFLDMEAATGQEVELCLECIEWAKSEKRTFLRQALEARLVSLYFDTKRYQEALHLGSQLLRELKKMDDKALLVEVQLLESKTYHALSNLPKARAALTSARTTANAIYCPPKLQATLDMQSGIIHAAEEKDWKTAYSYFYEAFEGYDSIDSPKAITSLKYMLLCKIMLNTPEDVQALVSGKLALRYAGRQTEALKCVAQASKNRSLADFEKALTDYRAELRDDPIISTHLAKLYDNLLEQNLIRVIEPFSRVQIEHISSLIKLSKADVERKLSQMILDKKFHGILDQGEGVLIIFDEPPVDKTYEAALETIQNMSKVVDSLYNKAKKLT

[8] = biological target: proteins of U3A human fibrosarcoma cells (4462 proteins detected) (Homo sapiens, UniProt P02786); conditions: protein TFRC; U3A cells
Chain of proteins of U3A human fibrosarcoma cells (4462 proteins detected) (Homo sapiens, UniProt P02786) (P02786 whole entry): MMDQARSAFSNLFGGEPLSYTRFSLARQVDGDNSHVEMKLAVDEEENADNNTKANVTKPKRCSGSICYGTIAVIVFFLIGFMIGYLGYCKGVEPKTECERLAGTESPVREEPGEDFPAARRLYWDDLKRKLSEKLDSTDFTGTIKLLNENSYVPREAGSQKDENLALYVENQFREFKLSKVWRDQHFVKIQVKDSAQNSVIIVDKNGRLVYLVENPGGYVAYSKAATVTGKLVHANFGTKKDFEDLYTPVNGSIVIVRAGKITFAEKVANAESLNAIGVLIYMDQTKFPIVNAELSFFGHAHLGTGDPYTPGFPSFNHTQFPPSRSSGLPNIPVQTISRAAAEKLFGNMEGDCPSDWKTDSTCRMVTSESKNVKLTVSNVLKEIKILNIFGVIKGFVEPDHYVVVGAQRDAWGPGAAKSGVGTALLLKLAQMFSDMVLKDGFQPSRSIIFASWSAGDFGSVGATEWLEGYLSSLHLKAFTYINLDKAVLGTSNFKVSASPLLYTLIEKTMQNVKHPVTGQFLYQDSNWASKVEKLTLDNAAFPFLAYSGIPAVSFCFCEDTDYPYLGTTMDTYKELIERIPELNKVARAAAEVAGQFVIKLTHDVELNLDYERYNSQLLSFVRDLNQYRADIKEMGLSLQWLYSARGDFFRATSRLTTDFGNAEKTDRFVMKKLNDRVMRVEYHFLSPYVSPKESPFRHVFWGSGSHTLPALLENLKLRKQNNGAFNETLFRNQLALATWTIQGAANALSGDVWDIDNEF

[9] = biological target: proteins of U3A human fibrosarcoma cells (4462 proteins detected) (Homo sapiens, UniProt Q9NTZ6); conditions: protein RBM12; soluble abundance after heat, U3A cells
Chain of proteins of U3A human fibrosarcoma cells (4462 proteins detected) (Homo sapiens, UniProt Q9NTZ6) (Q9NTZ6 whole entry): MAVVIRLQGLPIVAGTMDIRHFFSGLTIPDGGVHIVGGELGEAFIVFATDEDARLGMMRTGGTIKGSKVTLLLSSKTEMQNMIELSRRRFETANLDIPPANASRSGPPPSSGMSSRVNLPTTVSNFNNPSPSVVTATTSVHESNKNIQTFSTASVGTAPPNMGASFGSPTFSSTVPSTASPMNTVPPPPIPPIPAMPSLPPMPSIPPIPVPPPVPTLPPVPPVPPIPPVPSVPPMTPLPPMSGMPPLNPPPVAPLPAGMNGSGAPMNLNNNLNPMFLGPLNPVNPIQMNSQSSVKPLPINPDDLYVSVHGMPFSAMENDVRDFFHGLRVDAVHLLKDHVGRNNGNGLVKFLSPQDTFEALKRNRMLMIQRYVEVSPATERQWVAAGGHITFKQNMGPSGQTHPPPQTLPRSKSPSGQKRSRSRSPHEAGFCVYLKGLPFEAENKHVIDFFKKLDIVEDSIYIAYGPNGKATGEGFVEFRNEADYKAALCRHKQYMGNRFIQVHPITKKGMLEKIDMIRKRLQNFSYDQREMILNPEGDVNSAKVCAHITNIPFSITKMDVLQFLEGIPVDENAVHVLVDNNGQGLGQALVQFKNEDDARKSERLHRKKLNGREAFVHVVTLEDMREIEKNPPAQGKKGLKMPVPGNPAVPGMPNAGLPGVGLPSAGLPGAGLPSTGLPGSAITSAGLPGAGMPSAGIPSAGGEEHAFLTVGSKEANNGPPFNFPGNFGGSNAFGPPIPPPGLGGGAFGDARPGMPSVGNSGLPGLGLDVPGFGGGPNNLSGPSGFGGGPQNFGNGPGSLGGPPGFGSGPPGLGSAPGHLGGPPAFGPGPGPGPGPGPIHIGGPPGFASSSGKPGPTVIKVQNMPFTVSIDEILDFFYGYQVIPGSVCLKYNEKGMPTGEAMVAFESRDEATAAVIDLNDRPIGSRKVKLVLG

[10] = biological target: proteins of U3A human fibrosarcoma cells (4462 proteins detected) (Homo sapiens, UniProt Q9GZQ3); conditions: protein COMMD5; U3A cells
[11] = biological target: proteins of U3A human fibrosarcoma cells (4462 proteins detected) (Homo sapiens, UniProt Q6YHU6); conditions: protein THADA; soluble abundance after heat, U3A cells
[12] = biological target: proteins of U3A human fibrosarcoma cells (4462 proteins detected) (Homo sapiens, UniProt P50281); conditions: protein MMP14; U3A cells
[13] = biological target: proteins of U3A human fibrosarcoma cells (4462 proteins detected) (Homo sapiens, UniProt P62993); conditions: protein GRB2, U3A cells
Chain of proteins of U3A human fibrosarcoma cells (4462 proteins detected) (Homo sapiens, UniProt P62993) (P62993 whole entry): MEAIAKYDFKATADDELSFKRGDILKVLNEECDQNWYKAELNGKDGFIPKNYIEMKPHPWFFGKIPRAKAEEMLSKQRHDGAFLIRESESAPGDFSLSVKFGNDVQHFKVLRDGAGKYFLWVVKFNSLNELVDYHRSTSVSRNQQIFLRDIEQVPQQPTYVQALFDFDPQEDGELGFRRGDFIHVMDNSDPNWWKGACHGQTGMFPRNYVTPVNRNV

[14] = biological target: proteins of U3A human fibrosarcoma cells (4462 proteins detected) (Homo sapiens, UniProt Q9Y6E0); conditions: protein STK24; soluble abundance after heat, U3A cells
[15] = biological target: proteins of U3A human fibrosarcoma cells (4462 proteins detected) (Homo sapiens, UniProt Q9P0K7); conditions: protein RAI14; soluble abundance after heat, U3A cells
Chain of proteins of U3A human fibrosarcoma cells (4462 proteins detected) (Homo sapiens, UniProt Q9P0K7) (Q9P0K7 whole entry): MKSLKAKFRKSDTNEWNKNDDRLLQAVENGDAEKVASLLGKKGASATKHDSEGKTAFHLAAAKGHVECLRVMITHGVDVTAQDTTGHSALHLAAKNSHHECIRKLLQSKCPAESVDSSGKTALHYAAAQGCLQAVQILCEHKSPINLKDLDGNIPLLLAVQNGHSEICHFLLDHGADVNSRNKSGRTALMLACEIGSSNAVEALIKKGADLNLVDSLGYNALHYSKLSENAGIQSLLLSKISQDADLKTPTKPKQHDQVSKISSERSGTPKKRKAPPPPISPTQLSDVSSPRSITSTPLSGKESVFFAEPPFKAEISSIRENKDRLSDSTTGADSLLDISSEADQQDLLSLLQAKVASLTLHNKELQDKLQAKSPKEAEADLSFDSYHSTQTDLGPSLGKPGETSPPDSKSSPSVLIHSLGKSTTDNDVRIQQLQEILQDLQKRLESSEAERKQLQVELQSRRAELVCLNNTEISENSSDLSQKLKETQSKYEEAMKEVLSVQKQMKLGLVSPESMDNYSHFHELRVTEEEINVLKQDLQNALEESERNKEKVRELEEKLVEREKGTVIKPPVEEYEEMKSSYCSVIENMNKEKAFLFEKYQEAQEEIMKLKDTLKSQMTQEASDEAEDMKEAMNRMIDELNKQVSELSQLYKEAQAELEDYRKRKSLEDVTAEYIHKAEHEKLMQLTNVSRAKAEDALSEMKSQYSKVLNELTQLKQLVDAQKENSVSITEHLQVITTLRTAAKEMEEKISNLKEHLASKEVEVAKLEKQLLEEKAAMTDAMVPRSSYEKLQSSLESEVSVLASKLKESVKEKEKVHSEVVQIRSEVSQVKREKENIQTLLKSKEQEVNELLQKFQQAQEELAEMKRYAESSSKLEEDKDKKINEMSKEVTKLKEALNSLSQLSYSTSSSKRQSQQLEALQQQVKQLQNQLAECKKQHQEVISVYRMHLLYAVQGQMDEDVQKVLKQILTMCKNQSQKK

[16] = biological target: proteins of U3A human fibrosarcoma cells (4462 proteins detected) (Homo sapiens, UniProt Q9Y316); conditions: protein MEMO1, U3A cells
[17] = biological target: proteins of U3A human fibrosarcoma cells (4462 proteins detected) (Homo sapiens, UniProt O75909); conditions: protein CCNK; U3A cells
[18] = biological target: proteins of U3A human fibrosarcoma cells (4462 proteins detected) (Homo sapiens, UniProt Q14790); conditions: protein CASP8; U3A, 10 μM, 2 h
Chain of proteins of U3A human fibrosarcoma cells (4462 proteins detected) (Homo sapiens, UniProt Q14790) (Q14790 217-479): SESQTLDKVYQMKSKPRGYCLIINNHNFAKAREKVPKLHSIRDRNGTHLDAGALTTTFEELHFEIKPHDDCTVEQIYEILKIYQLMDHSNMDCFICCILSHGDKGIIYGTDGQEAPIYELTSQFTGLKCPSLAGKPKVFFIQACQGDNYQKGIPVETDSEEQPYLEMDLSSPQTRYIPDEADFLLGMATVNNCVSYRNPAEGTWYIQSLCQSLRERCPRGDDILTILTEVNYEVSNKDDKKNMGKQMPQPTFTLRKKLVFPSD

[19] = biological target: proteins of U3A human fibrosarcoma cells (4462 proteins detected) (Homo sapiens, UniProt P78316); conditions: protein NOP14; U3A cells
[20] = biological target: proteins of U3A human fibrosarcoma cells (4462 proteins detected) (Homo sapiens, UniProt P48556); conditions: protein PSMD8; U3A cells
[21] = biological target: proteins of U3A human fibrosarcoma cells (4462 proteins detected) (Homo sapiens, UniProt P48637); conditions: protein GSS; soluble abundance after heat, U3A cells
[22] = biological target: proteins of U3A human fibrosarcoma cells (4462 proteins detected) (Homo sapiens, UniProt Q8IY18); conditions: protein SMC5; U3A, 10 μM, 2 h
[23] = biological target: proteins of U3A human fibrosarcoma cells (4462 proteins detected) (Homo sapiens, UniProt Q9HC38); conditions: protein GLOD4, U3A cells
Chain of proteins of U3A human fibrosarcoma cells (4462 proteins detected) (Homo sapiens, UniProt Q9HC38) (Q9HC38 whole entry): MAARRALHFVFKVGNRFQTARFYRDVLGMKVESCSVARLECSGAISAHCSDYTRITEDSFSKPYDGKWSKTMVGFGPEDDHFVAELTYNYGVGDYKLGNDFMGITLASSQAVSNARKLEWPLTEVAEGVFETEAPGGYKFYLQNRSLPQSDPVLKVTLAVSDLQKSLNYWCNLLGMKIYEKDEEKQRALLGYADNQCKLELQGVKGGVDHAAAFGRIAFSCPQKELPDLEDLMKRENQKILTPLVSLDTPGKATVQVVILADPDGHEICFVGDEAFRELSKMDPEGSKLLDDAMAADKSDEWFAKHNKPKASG

[24] = biological target: proteins of U3A human fibrosarcoma cells (4462 proteins detected) (Homo sapiens, UniProt Q16775); conditions: protein HAGH, U3A cells
[25] = biological target: proteins of U3A human fibrosarcoma cells (4462 proteins detected) (Homo sapiens, UniProt Q9NWV8); conditions: protein BABAM1; soluble abundance after heat, U3A cells
[26] = biological target: proteins of U3A human fibrosarcoma cells (4462 proteins detected) (Homo sapiens, UniProt Q12765); conditions: protein SCRN1, U3A cells
[27] = biological target: proteins of U3A human fibrosarcoma cells (4462 proteins detected) (Homo sapiens, UniProt Q9BZZ5); conditions: protein API5; U3A cells
Chain of proteins of U3A human fibrosarcoma cells (4462 proteins detected) (Homo sapiens, UniProt Q9BZZ5) (Q9BZZ5 whole entry): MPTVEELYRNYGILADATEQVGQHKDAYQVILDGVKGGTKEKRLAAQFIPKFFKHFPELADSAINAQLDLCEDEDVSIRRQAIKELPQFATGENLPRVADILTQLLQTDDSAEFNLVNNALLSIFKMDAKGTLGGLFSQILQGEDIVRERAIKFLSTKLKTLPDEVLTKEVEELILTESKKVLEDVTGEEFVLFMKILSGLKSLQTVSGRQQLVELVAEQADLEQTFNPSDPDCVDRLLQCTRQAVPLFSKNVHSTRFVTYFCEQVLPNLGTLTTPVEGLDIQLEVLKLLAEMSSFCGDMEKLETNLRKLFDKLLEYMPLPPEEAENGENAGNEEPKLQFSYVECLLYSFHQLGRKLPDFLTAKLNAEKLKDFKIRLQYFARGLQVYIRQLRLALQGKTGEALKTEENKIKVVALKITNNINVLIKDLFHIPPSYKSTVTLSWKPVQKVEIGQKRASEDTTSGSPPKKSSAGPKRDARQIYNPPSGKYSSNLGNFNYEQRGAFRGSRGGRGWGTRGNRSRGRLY

[28] = biological target: proteins of U3A human fibrosarcoma cells (4462 proteins detected) (Homo sapiens, UniProt P08670); conditions: protein VIM; U3A cells
[29] = biological target: proteins of U3A human fibrosarcoma cells (4462 proteins detected) (Homo sapiens, UniProt P30086); conditions: protein PEBP1, U3A cells
[30] = biological target: proteins of U3A human fibrosarcoma cells (4462 proteins detected) (Homo sapiens, UniProt Q9HB71); conditions: protein CACYBP; U3A cells
Chain of proteins of U3A human fibrosarcoma cells (4462 proteins detected) (Homo sapiens, UniProt Q9HB71) (Q9HB71 whole entry): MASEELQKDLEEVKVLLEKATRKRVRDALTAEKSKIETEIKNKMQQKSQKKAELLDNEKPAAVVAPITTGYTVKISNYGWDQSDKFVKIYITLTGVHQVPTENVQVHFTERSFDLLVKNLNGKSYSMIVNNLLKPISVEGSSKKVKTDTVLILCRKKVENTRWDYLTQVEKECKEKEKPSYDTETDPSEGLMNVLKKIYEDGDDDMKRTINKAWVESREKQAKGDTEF

Chain of proteins of U3A human fibrosarcoma cells (4462 proteins detected) (Homo sapiens, UniProt Q6P3W2) (Q6P3W2 whole entry): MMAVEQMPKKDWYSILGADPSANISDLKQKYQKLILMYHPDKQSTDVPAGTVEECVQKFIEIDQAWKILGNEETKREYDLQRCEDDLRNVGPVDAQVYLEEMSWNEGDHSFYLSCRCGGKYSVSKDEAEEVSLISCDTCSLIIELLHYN

With `CCc1nc(N)nc(N)c1-c1ccc(Cl)cc1` [pyrimethamine] the “Log2 (PYR/DMSO)” value [1] was -0.04, the “Log2 (PYR/DMSO)” value [2] was 0.15 and the “Log2 (PYR/DMSO)” value [3] was -0.04. For the same compound, the “Log2 (PYR/DMSO)” value [4] was 0.21, the “Log2 (PYR/DMSO)” value [5] was 0.19 and the “Log2 (PYR/DMSO)” value [6] was -0.04. For the same compound, the “Log2 (PYR/DMSO)” value [7] was 0.17, the “Log2 (PYR/DMSO)” value [8] was 0.16 and the “Log2 (PYR/DMSO)” value [9] was 0.15. For the same compound, the “Log2 (PYR/DMSO)” value [10] was 0.21, the “Log2 (PYR/DMSO)” value [11] was 0.15 and the “Log2 (PYR/DMSO)” value [12] was 0.19. For the same compound, the “Log2 (PYR/DMSO)” value [13] was -0.04, the “Log2 (PYR/DMSO)” value [14] was 0.15 and the “Log2 (PYR/DMSO)” value [15] was 0.15. For the same compound, the “Log2 (PYR/DMSO)” value [16] was -0.03, the “Log2 (PYR/DMSO)” value [17] was 0.22 and the “Log2 (PYR/DMSO), CASP8” value [18] was 0.34. For the same compound, the “Log2 (PYR/DMSO)” value [19] was 0.15, the “Log2 (PYR/DMSO)” value [20] was 0.17 and the “Log2 (PYR/DMSO)” value [21] was 0.14. The “Log2 (PYR/DMSO), SMC5” value [22] was 0.30, the “Log2 (PYR/DMSO)” value [23] was -0.04 and the “Log2 (PYR/DMSO)” value [24] was -0.04. For the same compound, the “Log2 (PYR/DMSO)” value [25] was 0.15, the “Log2 (PYR/DMSO)” value [26] was -0.04 and the “Log2 (PYR/DMSO)” value [27] was 0.24. The “Log2 (PYR/DMSO)” value [28] was 0.17, the “Log2 (PYR/DMSO)” value [29] was -0.04 and the “Log2 (PYR/DMSO)” value [30] was 0.19.
